The source of these data is patent US12263139B2, “Use of cannabidiol in the treatment of tuberous sclerosis complex” (Jazz Pharmaceuticals Research UK Limited, priority 2017, dated 2025).

Molecules are shown by their SMILES.

In series [1] the test system is Miapaca. In words: Drug combination assay (MTT, CalcuSyn) of Rad001 and CBD in Miapaca. The series is classed as cell-based, Homo sapiens. As for the experimental part:
For the study of the synergism between Rad001 and CBD on pancreatic cell lines Miapaca was tested, the cells were seeded in 96-multiwell plates at the density of 3.8 10^3 cells/well. After 24 hr incubation at 37° C., the cells were treated with different concentrations of Rad001 and CBD. Different molar ratios between two drugs in different sequences of administration were tested, (Rad001 for 48 h and CBD for 72 h or Rad001 for 72 h and CBD for 48 h and in co-administration for 72 h.
The proliferative response was estimated by colorimetric 3-(4,5 di-methylthiazol-2-yl)-2,5-diphenyltetrazolium bromide (MIT) test. MTT conversion to formazan by metabolically viable cells was monitored by spectrophotometer at an optical density of 570 nm. Each data point represents the average of three separate experiments with each experiment containing four wells. Drug combination studies were based on concentration-effect curves generated as a plot of the fraction of unaffected (surviving) cells versus drug concentration after treatment.
To explore the relative contribution of each agent to the synergism equi-active doses of […] were tested (IC50). Assessment of synergy was performed quantitating drug interaction by Calcusyn computer program (Biosoft, Ferguson, MO). Combination index (CI) values of <1, 1, and >1 indicate synergy, additivity and antagonism, respectively.
Dose reduction index (DRI) representing the measure of how much the dose of each drug in a combination may be reduced at a given effect level compared with the doses of each drug alone.
The effects of the pharmacological combination between CBD and RAD001 on the proliferation MIAPACA cell lines, using MTT assay were studied. The data obtained were processed with dedicated program, CalcuSyn (Chou and Talalay, Biosoft, Oregon, USA), which measures synergism.
The specific contribution of CBD and Rad001 on the cytotoxic effect of the combination of drugs was analyzed by calculating the potentiation factor (PF) defined as the ratio of the IC50 of either CBD or Rad001 alone to the IC50 of CBD and Rad001 in combination. A higher PF indicates a greater cytotoxicity.

The conditions of series [2]: stomatitis, infections, rash, fatigue, diarrhoea, oedema, abdominal pain, nausea, fever, asthenia, cough, headache, decreased appetite; cited from earlier work.

For the compound `CO[C@H]1C[C@@H]2CC[C@@H](C)[C@@](O)(O2)C(=O)C(=O)N2CCCC[C@H]2C(=O)O[C@H]([C@H](C)C[C@@H]2CC[C@@H](OCCO)[C@H](OC)C2)CC(=O)[C@H](C)/C=C(\C)[C@@H](O)[C@@H](OC)C(=O)[C@H](C)C[C@H](C)/C=C/C=C/C=C/1C` [Rad001, Everolimus, reference compound], the IC50 in series [1] (Homo sapiens, MIA PaCa-2, Miapaca, 50% effect level, read-out: Dose of drug alone) was 2600 nM. Also, the DRI50 result in series [1] (Miapaca, Rad/CBD combination, dose reduction index) was “Rad 2.1”. Moreover, in series [1] (ratio of IC50 alone to IC50 of CBD and Rad001 in combination), the “potentiation factor (PF)” value was 4. The “incidence of most common adverse reactions” value in series [2] is at least 30%.
